From patent US20260035387A1 (BIOGEN MA INC., priority 2022, published 2026)

Tested on: mutant Huntington (HTT) protein
Test: HTT Mutant HTRF iPSC assay (mHTT protein lowering)
Type: cell-based
Conditions: human iPSC derived from a HTT patient with a poly-Q49 mutation

Row | SMILES | IC50 [nM]
1 | Cc1cn2cc(NC(=O)c3nc4ccc(N5CCNCC5)nc4s3)cc(F)c2n1 [Compound 102, N-(8-fluoro-2-methylimidazo[1,2-a]pyridin-6-yl)-5-(piperazin-1-yl)thiazolo[5,4-b]pyridine-2-carboxamide] | < 100
2 | Cc1cn2cc(NC(=O)c3nc4ccc(NC5CC(C)(C)NC(C)(C)C5)nc4s3)cc(F)c2n1 [Compound 103, N-(8-fluoro-2-methylimidazo[1,2-a]pyridin-6-yl)-5-((2,2,6,6-tetramethylpiperidin-4-yl)amino)thiazolo[5,4-b]pyridine-2-carboxamide] | < 100
3 | Cc1cn2cc(NC(=O)c3nc4ccc(N5C[C@H]6CN(C)C[C@H]65)nc4s3)cc(F)c2n1 [Compound 104, N-(8-fluoro-2-methylimidazo[1,2-a]pyridin-6-yl)-5-((1R,5S)-3-methyl-3,6-diazabicyclo[3.2.0]heptan-6-yl)thiazolo[5,4-b]pyridine-2-carboxamide] | < 100
4 | Cc1cn2cc(NC(=O)c3nc4ccc(N5C[C@@H]6CCN[C@@H]6C5)nc4s3)cc(F)c2n1 [Compound 105, N-(8-fluoro-2-methylimidazo[1,2-a]pyridin-6-yl)-5-((3aS,6aS)-hexahydropyrrolo[3,4-b]pyrrol-5(1H)-yl)thiazolo[5,4-b]pyridine-2-carboxamide] | < 100
5 | Cc1cn2cc(NC(=O)c3nc4ccc(N5C[C@@H]6CN(C)C[C@@H]65)nc4s3)cc(F)c2n1 [Compound 106, N-(8-fluoro-2-methylimidazo[1,2-a]pyridin-6-yl)-5-((1S,5R)-3-methyl-3,6-diazabicyclo[3.2.0]heptan-6-yl)thiazolo[5,4-b]pyridine-2-carboxamide] | 100 to 1000
6 | CN[C@H]1CCN(c2ccc3nc(C(=O)Nc4cc(F)c5nc(C)cn5c4)sc3n2)C1 [Compound 107, (S)-N-(8-fluoro-2-methylimidazo[1,2-a]pyridin-6-yl)-5-(3-(methylamino)pyrrolidin-1-yl)thiazolo[5,4-b]pyridine-2-carboxamide] | < 100
7 | Cc1cn2cc(NC(=O)c3nc4ccc(N5C[C@H]6CCN[C@H]6C5)nc4s3)cc(F)c2n1 [Compound 108, N-(8-fluoro-2-methylimidazo[1,2-a]pyridin-6-yl)-5-((3aR,6aR)-hexahydropyrrolo[3,4-b]pyrrol-5(1H)-yl)thiazolo[5,4-b]pyridine-2-carboxamide] | < 100
8 | COc1nc(NC(=O)c2nc3ccc(N4CCC5(CCCN5C)C4)nc3s2)cn2cc(C)nc12 (centres unmarked) [Compound 109, N-(8-methoxy-2-methylimidazo[1,2-a]pyrazin-6-yl)-5-(1-methyl-1,7-diazaspiro[4.4]nonan-7-yl)thiazolo[5,4-b]pyridine-2-carboxamide] | < 100
9 | Cc1cn2cc(NC(=O)c3nc4ccc(N5C[C@@H]6CCN[C@@H]6C5)nc4s3)cc(F)c2n1 [Compound 110, N-(8-fluoro-2-methylimidazo[1,2-a]pyridin-6-yl)-5-((3aS,6aS)-hexahydropyrrolo[3,4-b]pyrrol-5(1H)-yl)thiazolo[5,4-b]pyridine-2-carboxamide] | < 100
10 | Cc1cn2cc(NC(=O)c3nc4ccc(N5CCC6(CCN6)C5)nc4s3)cc(F)c2n1 (centres unmarked) [Compound 112, N-(8-fluoro-2-methylimidazo[1,2-a]pyridin-6-yl)-5-(1,6-diazaspiro[3.4]octan-6-yl)thiazolo[5,4-b]pyridine-2-carboxamide] | < 100
11 | Cc1cn2cc(NC(=O)c3nc4ccc(N(C)C5CC(C)(C)NC(C)(C)C5)nc4s3)cc(F)c2n1 [Compound 113, N-(8-fluoro-2-methylimidazo[1,2-a]pyridin-6-yl)-5-(methyl(2,2,6,6-tetramethylpiperidin-4-yl)amino)thiazolo[5,4-b]pyridine-2-carboxamide] | < 100
12 | COc1c(NC(=O)c2nc3ccc(N4CCC5(CN(C)C5)C4)nc3s2)cn2cc(C)nc2c1F [Compound 114, N-(8-fluoro-7-methoxy-2-methylimidazo[1,2-a]pyridin-6-yl)-5-(2-methyl-2,6-diazaspiro[3.4]octan-6-yl)thiazolo[5,4-b]pyridine-2-carboxamide] | < 100
13 | COc1cn2nc(C)cc2cc1NC(=O)c1nc2ccc(N3CCC4(CCCN4C)C3)nc2s1 (centres unmarked) [Compound 116, N-(6-methoxy-2-methylpyrazolo[1,5-a]pyridin-5-yl)-5-(1-methyl-1,7-diazaspiro[4.4]nonan-7-yl)thiazolo[5,4-b]pyridine-2-carboxamide] | 100 to 1000
14 | COc1nc(NC(=O)c2nc3ccc(N4CC[C@@H](N(C)C)C4)nc3s2)cn2cc(C)nc12 [Compound 117, (R)-5-(3-(dimethylamino)pyrrolidin-1-yl)-N-(8-methoxy-2-methylimidazo[1,2-a]pyrazin-6-yl)thiazolo[5,4-b]pyridine-2-carboxamide] | < 100
15 | CCN1CCN(c2ccc3nc(C(=O)Nc4cc5cn(C)nc5cc4OC)sc3n2)CC1 [Compound 118, 5-(4-ethylpiperazin-1-yl)-N-(6-methoxy-2-methyl-2H-indazol-5-yl)thiazolo[5,4-b]pyridine-2-carboxamide] | 100 to 1000
16 | CCN1CCN(c2ccc3nc(C(=O)Nc4cn5cc(C)nc5c(C)n4)sc3n2)CC1 [Compound 119, N-(2,8-dimethylimidazo[1,2-a]pyrazin-6-yl)-5-(4-ethylpiperazin-1-yl)thiazolo[5,4-b]pyridine-2-carboxamide] | 100 to 1000

Row | SMILES | IC50 [nM]
17 | COc1cc2nn(C)cc2cc1NC(=O)c1nc2ccc(N3CC[C@@H](N4CCC4)C3)nc2s1 [Compound 120, (R)-5-(3-(azetidin-1-yl)pyrrolidin-1-yl)-N-(6-methoxy-2-methyl-2H-indazol-5-yl)thiazolo[5,4-b]pyridine-2-carboxamide] | 100 to 1000
18 | COc1cc2nn(C)cc2cc1NC(=O)c1nc2ccc(N3CC[C@H](N4CCC4)C3)nc2s1 [Compound 121, (S)-5-(3-(azetidin-1-yl)pyrrolidin-1-yl)-N-(6-methoxy-2-methyl-2H-indazol-5-yl)thiazolo[5,4-b]pyridine-2-carboxamide] | 100 to 1000
19 | Cc1cn2cc(NC(=O)c3nc4ccc(N5CCC(N6CCC6)C5)nc4s3)nc(C)c2n1 (centres unmarked) [Compound 122, 5-(3-(azetidin-1-yl)pyrrolidin-1-yl)-N-(2,8-dimethylimidazo[1,2-a]pyrazin-6-yl)thiazolo[5,4-b]pyridine-2-carboxamide] | 1000 to 9000
20 | Cc1cn2cc(NC(=O)c3nc4ccc(C5CCNCC5)nc4s3)cc(F)c2n1 [Compound 129, N-(8-fluoro-2-methylimidazo[1,2-a]pyridin-6-yl)-5-(piperidin-4-yl)thiazolo[5,4-b]pyridine-2-carboxamide] | < 100
21 | Cc1cn2cc(NC(=O)c3nc4ccc(C5=CC6CCC(C5)N6)nc4s3)cc(F)c2n1 (centres unmarked) [Compound 130, 5-(8-azabicyclo[3.2.1]oct-2-en-3-yl)-N-(8-fluoro-2-methylimidazo[1,2-a]pyridin-6-yl)thiazolo[5,4-b]pyridine-2-carboxamide] | < 100
22 | Cc1cn2cc(NC(=O)c3nc4ccc(C5CCN(C)C5)nc4s3)cc(F)c2n1 (centres unmarked) [Compound 131, N-(8-fluoro-2-methylimidazo[1,2-a]pyridin-6-yl)-5-(1-methylpyrrolidin-3-yl)thiazolo[5,4-b]pyridine-2-carboxamide] | < 100
23 | Cc1cn2cc(NC(=O)c3nc4ccc(C5=CC(C)(C)NC(C)(C)C5)nc4s3)cc(F)c2n1 [Compound 132, N-(8-fluoro-2-methylimidazo[1,2-a]pyridin-6-yl)-5-(2,2,6,6-tetramethyl-1,2,3,6-tetrahydropyridin-4-yl)thiazolo[5,4-b]pyridine-2-carboxamide] | < 100
24 | Cc1cn2cc(NC(=O)c3nc4ccc(C5=CCCN(C)C5)nc4s3)cc(F)c2n1 [Compound 133, N-(8-fluoro-2-methylimidazo[1,2-a]pyridin-6-yl)-5-(1-methyl-1,2,5,6-tetrahydropyridin-3-yl)thiazolo[5,4-b]pyridine-2-carboxamide] | < 100
25 | Cc1cn2cc(NC(=O)c3nc4ccc(C5CCCN(C)C5)nc4s3)cc(F)c2n1 (centres unmarked) [Compound 134, N-(8-fluoro-2-methylimidazo[1,2-a]pyridin-6-yl)-5-(1-methylpiperidin-3-yl)thiazolo[5,4-b]pyridine-2-carboxamide] | < 100
26 | COc1cc2nn(C)cc2cc1NC(=O)c1nc2ccc(C3CCN(C)CC3)nc2s1 [Compound 135, N-(6-methoxy-2-methyl-2H-indazol-5-yl)-5-(1-methylpiperidin-4-yl)thiazolo[5,4-b]pyridine-2-carboxamide] | 100 to 1000
27 | Cc1cn2cc(NC(=O)c3nc4ccc(C5CCN(C)CC5)nc4s3)nc(C)c2n1 [Compound 136, N-(2,8-dimethylimidazo[1,2-a]pyrazin-6-yl)-5-(1-methylpiperidin-4-yl)thiazolo[5,4-b]pyridine-2-carboxamide] | 1000 to 9000
28 | COc1cc2nn(C)cc2cc1NC(=O)c1nc2ccc(C3CCN(C)C3)nc2s1 (centres unmarked) [Compound 137, N-(6-methoxy-2-methyl-2H-indazol-5-yl)-5-(1-methylpyrrolidin-3-yl)thiazolo[5,4-b]pyridine-2-carboxamide] | < 100
29 | Cc1cn2cc(NC(=O)c3nc4ccc(C5CCN(C)C5)nc4s3)nc(C)c2n1 (centres unmarked) [Compound 138, N-(2,8-dimethylimidazo[1,2-a]pyrazin-6-yl)-5-(1-methylpyrrolidin-3-yl)thiazolo[5,4-b]pyridine-2-carboxamide] | 100 to 1000
30 | Cc1cn2cc(NC(=O)c3nc4ccc(C5C[C@@H](C)N[C@@H](C)C5)nc4s3)cc(F)c2n1 (stereo partly drawn) [Compound 139, 5-[(2S,6R)-2,6-dimethyl-4-piperidyl]-N-(8-fluoro-2-methyl-imidazo[1,2-a]pyridin-6-yl)thiazolo[5,4-b]pyridine-2-carboxamide] | < 100
31 | Cc1cn2cc(NC(=O)c3nc4ccc(C5=C[C@@H](C)N[C@@H](C)C5)nc4s3)cc(F)c2n1 [Compound 140, 5-[(2S,6R)-2,6-dimethyl-1,2,3,6-tetrahydropyridin-4-yl]-N-(8-fluoro-2-methyl-imidazo[1,2-a]pyridin-6-yl)thiazolo[5,4-b]pyridine-2-carboxamide] | < 100
32 | Cc1cn2cc(NC(=O)c3cc4ncc(C5CC6CCC(C5)N6)nc4s3)cc(F)c2n1 (centres unmarked) [Compound 142, 3-(8-azabicyclo[3.2.1]octan-3-yl)-N-(8-fluoro-2-methylimidazo[1,2-a]pyridin-6-yl)thieno[2,3-b]pyrazine-6-carboxamide] | 100 to 1000
